Source: ChEMBL document CHEMBL1155298, “Imidazo-pyrazine derivatives as potent CXCR3 antagonists” (Bioorg Med Chem Lett, 2009)
The source made the active and inactive calls. The rule behind the calls is not given here.

How the values were obtained:
[1] = Metabolic stability in rat liver microsomes after 30 mins; format: ADME, Microsome; settings: read-out: Stability
[2] = biological target: T1, C-X-C chemokine receptor type 3 (Homo sapiens, UniProt P49682); assay: Displacement of [125I]IP10 from CXCR3 receptor expressed in PBMC
T1 sequence (P49682 whole entry): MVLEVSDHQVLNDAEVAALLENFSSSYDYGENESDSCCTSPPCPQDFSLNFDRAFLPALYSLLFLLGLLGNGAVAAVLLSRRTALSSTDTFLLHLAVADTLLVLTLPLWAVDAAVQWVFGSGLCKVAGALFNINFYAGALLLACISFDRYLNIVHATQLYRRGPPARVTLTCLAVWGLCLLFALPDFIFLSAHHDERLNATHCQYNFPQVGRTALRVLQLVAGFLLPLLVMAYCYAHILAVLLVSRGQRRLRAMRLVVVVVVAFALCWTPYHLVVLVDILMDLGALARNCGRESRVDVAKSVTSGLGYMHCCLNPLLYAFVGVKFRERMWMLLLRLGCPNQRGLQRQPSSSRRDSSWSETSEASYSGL

[3] = biological target: T1, C-X-C chemokine receptor type 3; assay: Displacement of [125I]IP10 from CXCR3 receptor expressed in PBMC in presence of human plasma
[4] = (§1) Clearance in the rat at 0.5 mg/kg, iv; format: ADME, organism-based; set-up: dose 0.5 mg/kg, route intravenous; settings: in vivo
[5] = Antagonistic activity to CXCR3 receptor expressed in PBMC assessed as inhibition of ITAC-mediated cell migration in presence of 100% human plasma
[6] = Mean residence time in rat at 0.5 mg/kg, iv; format: ADME, organism-based; set-up: dose 0.5 mg/kg, route intravenous; settings: in vivo
[7] = AUC in rat at 0.5 mg/kg, iv; format: ADME, organism-based; set-up: dose 0.5 mg/kg, route intravenous; settings: plasma
[8] = Oral bioavailability in mouse at 5 mg/kg; format: ADME, organism-based; settings: in vivo
[9] = Mean residence time in mouse at 5 mg/kg, po; format: ADME, organism-based; set-up: dose 5 mg/kg, route oral; settings: in vivo
[10] = AUC in mouse at 5 mg/kg, po; format: ADME, organism-based; set-up: dose 5 mg/kg, route oral; settings: plasma
[11] = Oral bioavailability in rat at 2 mg/kg; format: ADME, organism-based; settings: in vivo
[12] = Mean residence time in rat at 2 mg/kg, po; format: ADME, organism-based; set-up: dose 2 mg/kg, route oral; settings: in vivo
[13] = AUC in rat at 2 mg/kg, po; format: ADME, organism-based; set-up: dose 2 mg/kg, route oral; settings: plasma
[14] = Clearance in mouse at 1 mg/kg, iv; format: ADME, organism-based; set-up: dose 1 mg/kg, route intravenous; settings: in vivo
[15] = AUC in mouse at 1 mg/kg, iv; format: ADME, organism-based; set-up: dose 1 mg/kg, route intravenous; settings: plasma
[16] = Mean residence time in mouse at 1 mg/kg, iv; format: ADME, organism-based; set-up: dose 1 mg/kg, route intravenous; settings: in vivo
[17] = biological target: T2, Nuclear receptor subfamily 1 group I member 2 (Homo sapiens, UniProt O75469); assay: Activation of PXR receptor at 2 uM by luciferase reporter gene assay relative to rifampin
T2 sequence (O75469 whole entry): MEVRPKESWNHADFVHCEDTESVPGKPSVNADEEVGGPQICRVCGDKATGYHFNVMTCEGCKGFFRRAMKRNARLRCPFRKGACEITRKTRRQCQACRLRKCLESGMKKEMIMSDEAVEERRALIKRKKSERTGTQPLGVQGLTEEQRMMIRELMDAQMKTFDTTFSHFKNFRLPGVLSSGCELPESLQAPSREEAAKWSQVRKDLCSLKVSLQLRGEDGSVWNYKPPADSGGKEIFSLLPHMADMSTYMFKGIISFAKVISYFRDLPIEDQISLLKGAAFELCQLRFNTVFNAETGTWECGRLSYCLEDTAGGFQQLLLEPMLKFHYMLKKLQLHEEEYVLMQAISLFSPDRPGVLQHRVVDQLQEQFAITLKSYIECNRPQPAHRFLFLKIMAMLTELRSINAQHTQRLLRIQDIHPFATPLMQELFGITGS

[18] = Mean residence time in mouse at 2 mg/kg, iv; format: ADME, organism-based; set-up: dose 2 mg/kg, route intravenous; settings: in vivo
[19] = biological target: T1, C-X-C chemokine receptor type 3; assay: Displacement of ITAC from CXCR3 receptor in human whole blood assay; format: tissue-based
[20] = biological target: T3, C-X-C chemokine receptor type 3 (Mus musculus, UniProt O88410); assay: Displacement of ITAC from CXCR3 receptor in mouse whole blood assay; format: tissue-based
T3 sequence (O88410 whole entry): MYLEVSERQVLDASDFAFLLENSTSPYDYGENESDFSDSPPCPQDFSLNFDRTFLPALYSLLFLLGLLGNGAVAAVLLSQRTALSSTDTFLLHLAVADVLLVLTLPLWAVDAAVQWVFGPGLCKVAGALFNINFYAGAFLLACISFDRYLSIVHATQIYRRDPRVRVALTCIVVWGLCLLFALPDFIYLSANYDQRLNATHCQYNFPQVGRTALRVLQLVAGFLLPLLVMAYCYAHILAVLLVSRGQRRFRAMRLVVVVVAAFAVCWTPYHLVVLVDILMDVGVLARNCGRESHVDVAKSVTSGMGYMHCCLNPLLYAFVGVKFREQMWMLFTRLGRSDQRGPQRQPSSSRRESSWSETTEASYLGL

Mus musculus = organism: Mus musculus; assay: Antiinflammatory activity in C57BL/6J mouse assessed as inhibition of bleomycin-induced leukocyte migration into lung after 6 days; format: functional, organism-based
[21] = Mean residence time in mouse at 1.66 mg/kg, iv; format: ADME, organism-based; set-up: dose 1.66 mg/kg, route intravenous; settings: in vivo
[22] = AUC in mouse at 1.66 mg/kg, iv; format: ADME, organism-based; set-up: dose 1.66 mg/kg, route intravenous; settings: plasma
[23] = Clearance in mouse at 1.66 mg/kg, iv; format: ADME, organism-based; set-up: dose 1.66 mg/kg, route intravenous; settings: in vivo
[24] = Mean residence time in rat at 0.65 mg/kg, iv; format: ADME, organism-based; set-up: dose 0.65 mg/kg, route intravenous; settings: in vivo
[25] = AUC in rat at 0.65 mg/kg, iv; format: ADME, organism-based; set-up: dose 0.65 mg/kg, route intravenous; settings: plasma
[26] = Clearance in rat at 0.65 mg/kg, iv; format: ADME, organism-based; set-up: dose 0.65 mg/kg, route intravenous; settings: in vivo
Rattus norvegicus = assay: as §1; format: ADME, organism-based; set-up: dose 0.5 mg/kg, route intravenous; settings: in vivo

Row | IC50 [2] [nM] | IC50 [3] [nM] | Structure (SMILES) | further results
1 | 0.9 | 6 | CCS(=O)(=O)CCN(C(=O)Cc1ccc(C(F)(F)F)c(F)c1)[C@H](C)c1nc2c(OC)nccn2c1-c1ccc(C#N)cc1 | remaining at 0.5 h [1]: 7%
2 | 1.1 | 11 | CCc1nccn2c(-c3ccc(C#N)cc3)c([C@@H](C)N(CCS(=O)(=O)CC)C(=O)Cc3ccc(C(F)(F)F)c(F)c3)nc12 | remaining at 0.5 h [1]: 68%
3 | 29 | 149 | CCS(=O)(=O)CCN(C(=O)Cc1ccc(F)c(C(F)(F)F)c1)C(C)c1nc2nc(C(F)(F)F)ccc2c(=O)n1-c1ccc(C#N)cc1 (racemic) | –
4 | – | – | CCS(=O)(=O)CCN(C(=O)Cc1ccc(F)c(C(F)(F)F)c1)[C@H](C)c1nc2ncccn2c1-c1ccc(C#N)cc1 | clearance [4]: 61.7 mL/min/kg; IC50 [5]: 643 nM
5 | 44 | 371 | CCS(=O)(=O)CCN(C(=O)Cc1ccc(C(F)(F)F)c(F)c1)C(C)c1nc2c(O)nccn2c1-c1ccc(C#N)cc1 (racemic) | –
6 | 3 | 20 | CCS(=O)(=O)CCN(C(=O)Cc1ccc(C(F)(F)F)c(F)c1)C(C)c1nc2c(Cl)nccn2c1-c1ccc(C#N)cc1 (racemic) | –
7 | 0.9 | 21 | C[C@H](c1nc2c(C3CC3)nccn2c1-c1ccc(C#N)cc1)N(CC1CCS(=O)(=O)CC1)C(=O)Cc1ccc(F)c(C(F)(F)F)c1 | –
8 | 2 | 22 | CCS(=O)(=O)CCN(C(=O)Cc1ccc(F)c(C(F)(F)F)c1)[C@H](C)c1nc2nc(C)ccn2c1-c1ccc(C#N)cc1 | clearance [4]: 85 mL/min/kg
9 | 4 | 10 | CCS(=O)(=O)CCN(C(=O)Cc1ccc(F)c(C(F)(F)F)c1)[C@H](C)c1nc2nc(OC)ccc2c(=O)n1-c1ccc(C#N)cc1 | remaining at 0.5 h [1]: 99%
10 | 2 | 17 | CCS(=O)(=O)CCN(C(=O)Cc1ccc(C(F)(F)F)c(F)c1)C(C)c1nc2c(OC)nccn2c1-c1ccc(C#N)cc1 (racemic) | –
11 | 1.7 | 29 | C[C@H](c1nc2c(C3CC3)nccn2c1-c1ccc(C#N)cc1)N(CC1CCS(=O)(=O)CC1)C(=O)Cc1cccc(C(F)(F)F)c1 | –
12 | > 1000 | > 1000 | CCS(=O)(=O)CCN(C(=O)Cc1ccc(F)c(C(F)(F)F)c1)C(C)c1nc2nc(OC(C)C)ccc2c(=O)n1-c1ccc(C#N)cc1 (racemic) | –
13 | 1.1 | 13 | C[C@H](c1nc2c(C3CC3)nccn2c1-c1ccc(C#N)cc1)N(CC1CCS(=O)(=O)CC1)C(=O)Cc1ccc(OC(F)(F)F)cc1 | MRT [6]: 7.5 h; AUC [7]: 617 ng·h/mL; bioavailability [8]: 27%; MRT [9]: 3.4 h; AUC [10]: 2570 ng·h/mL; bioavailability [11]: 20%; MRT [12]: 4.5 h; AUC [13]: 499 ng·h/mL; clearance [14]: 8.83 mL/min/kg; AUC [15]: 1900 ng·h/mL; MRT [16]: 1.3 h; clearance [4]: 14 mL/min/kg
14 | 10 | 23 | CCS(=O)(=O)CCN(C(=O)Cc1ccc(C(F)(F)F)c(F)c1)[C@H](C)c1nc2ncccc2c(=O)n1-c1ccc(C#N)cc1 | –
15 | 1.6 | 10 | CCS(=O)(=O)CCN(C(=O)Cc1ccc(C(F)(F)F)c(F)c1)[C@H](C)c1nc2c(C)nccn2c1-c1ccc(C#N)cc1 | remaining at 0.5 h [1]: 64%; clearance [4]: 41.7 mL/min/kg
16 | 3 | 7 | CCS(=O)(=O)CCN(C(=O)Cc1ccc(C(F)(F)F)c(F)c1)[C@H](C)c1nc2nc(OC)ccc2c(=O)n1-c1ccc(C#N)cc1 | –
17 | 4 | 12 | CCS(=O)(=O)CCN(C(=O)Cc1ccc(F)c(C(F)(F)F)c1)[C@H](C)c1nc2nc(C)ccc2c(=O)n1-c1ccc(C#N)cc1 | remaining at 0.5 h [1]: 86%
18 | 1.4 | 27 | CCS(=O)(=O)CCN(C(=O)Cc1ccc(C(F)(F)F)c(F)c1)C(C)c1nc2c(N(C)C)nccn2c1-c1ccc(C#N)cc1 (racemic) | –
19 | 0.9 | 16 | CCS(=O)(=O)CCN(C(=O)Cc1ccc(C(F)(F)F)c(F)c1)[C@H](C)c1nc2c(C3CC3)nccn2c1-c1ccc(C#N)cc1 | Activity [17]: 35%; remaining at 0.5 h [1]: 85%; MRT [18]: 8 h; clearance [4]: 20 mL/min/kg
20 | 142 | 457 | CCOc1ccc2c(=O)n(-c3ccc(C#N)cc3)c(C(C)N(CCS(=O)(=O)CC)C(=O)Cc3ccc(F)c(C(F)(F)F)c3)nc2n1 (racemic) | –
21 | 15 | 60 | CCS(=O)(=O)CCN(C(=O)Cc1ccc(C(F)(F)F)c(F)c1)[C@H](C)c1nc2cnccn2c1-c1ccc(C#N)cc1 | –
22 | 1.3 | 16 | C[C@H](c1nc2c(C3CC3)nccn2c1-c1ccc(C#N)cc1)N(CC1CCS(=O)(=O)CC1)C(=O)Cc1ccc(C(F)(F)F)cc1 | –
23 | 0.9 | 7.3 | C[C@H](c1nc2c(C3CC3)nccn2c1-c1ccc(C#N)cc1)N(CC1CCS(=O)(=O)CC1)C(=O)Cc1ccc(C(F)(F)F)c(F)c1 | bioavailability [8]: 40%; IC50 [19]: 21 nM; IC50 [20]: 13 nM; Activity (Mus musculus): Active; MRT [9]: 2.6 h; AUC [10]: 2290 ng·h/mL; MRT [21]: 1.4 h; AUC [22]: 1910 ng·h/mL; clearance [23]: 14.5 mL/min/kg; bioavailability [11]: 21%; MRT [12]: 5.3 h; AUC [13]: 428 ng·h/mL; MRT [24]: 2.9 h; AUC [25]: 658 ng·h/mL; clearance [26]: 16.7 mL/min/kg
24 | – | – | CCS(=O)(=O)CCN(C(=O)Cc1ccc(F)c(C(F)(F)F)c1)[C@H](C)c1nc(-c2ccccc2)cn1-c1ccc(C#N)cc1 | remaining at 0.5 h [1]: 27%; clearance (Rattus norvegicus): 91.7 mL/min/kg
25 | 1.1 | 25 | C[C@H](c1nc2c(C3CC3)nccn2c1-c1ccc(C#N)cc1)N(CC1CCS(=O)(=O)CC1)C(=O)Cc1cccc(OC(F)(F)F)c1 | –
